Laboratory results taken from paper PMC10778198, “First-in-Human Dose-Escalation Study of the Novel Oral Depsipeptide Class I-Targeting HDAC Inhibitor Bocodepsin (OKI-179) in Patients with Advanced Solid Tumors” (Cancers, 2023).

Test system: patients with advanced solid tumors
Assay: phase I dose escalation: safety, DLT, MTD, RP2D (CTCAE v. 5)
Type: in vivo
Details: 4:3
Text: Subsequent dosing cohorts were enrolled using a standard 3 + 3 design.
If any patient in any cohort of three patients developed a DLT during cycle 1, an additional three patients were recruited to expand the cohort to up to six evaluable patients. If two or more patients in any expanded cohort developed a DLT, this dose was considered non-tolerated, and dose escalation was discontinued. The MTD was defined as the highest dose level for which no more than one of six patients experienced a DLT.
Patients were continuously evaluated for adverse events throughout the study using the Common Terminology Criteria of Adverse Events (CTCAE v. 5). The patients underwent a clinical history and physical examination, an ECOG PS, a complete blood count (CBCs), chemistry, coagulation studies, urinalysis, a serum pregnancy test (as applicable), a triplicate ECG, an ophthalmology examination, and baseline tumor assessment at screening. During cycle 1, weekly history and physical examination, CBC, chemistry, coagulation parameters, urinalysis, and triplicate ECGs were performed; in subsequent cycles, weekly labs were limited to a CBC. Repeat ophthalmology examinations were performed at cycle 3, day 1, and at the end of treatment. Repeat tumor assessment was performed every 2 cycles (6 weeks) in accordance with RECIST 1.1.

CC(C)[C@H](N)C(=O)SCC/C=C/[C@@H]1CC(=O)NCc2nc(cs2)C(=O)NC(C)(C)C(=O)N[C@@H](C(C)C)C(=O)O1 [OKI-179, Bocodepsin]
TEAE: Anemia (30 mg–210 mg (n = 8), G1): 0 n (%) | TEAE: Back pain (30 mg–210 mg (n = 8), G1): 1 (13) n (%) | TEAE: Cough (30 mg–210 mg (n = 8), G1): 2 (25) n (%) | TEAE: Decreased appetite (30 mg–210 mg (n = 8), G1): 3 (38) n (%) | TEAE: Diarrhea (30 mg–210 mg (n = 8), G1): 5 (63) n (%) | TEAE: Dyspnea (30 mg–210 mg (n = 8), G1): 2 (25) n (%) | TEAE: ECG QT prolonged (30 mg–210 mg (n = 8), G1): 0 n (%) | TEAE: Fatigue (30 mg–210 mg (n = 8), G1): 2 (25) n (%) | TEAE: Headache (30 mg–210 mg (n = 8), G1): 2 (25) n (%) | TEAE: Hypokalaemia (30 mg–210 mg (n = 8), G1): 1 (13) n (%) | TEAE: Muscular weakness (30 mg–210 mg (n = 8), G1): 0 n (%) | TEAE: Nasal congestion (30 mg–210 mg (n = 8), G1): 1 (13) n (%) | TEAE: Nausea (30 mg–210 mg (n = 8), G1): 5 (63) n (%) | TEAE: Platelet count decreased (30 mg–210 mg (n = 8), G1): 0 n (%) | TEAE: Proteinuria (30 mg–210 mg (n = 8), G1): 0 n (%) | TEAE: Pyrexia (30 mg–210 mg (n = 8), G1): 2 (25) n (%) | TEAE: Vomiting (30 mg–210 mg (n = 8), G1): 4 (50) n (%) | TEAE: Weight decreased (30 mg–210 mg (n = 8), G1): 1 (13) n (%) | TEAE: Anemia (30 mg–210 mg (n = 8), G2): 2 (25) n (%) | TEAE: Back pain (30 mg–210 mg (n = 8), G2): 0 n (%) | TEAE: Cough (30 mg–210 mg (n = 8), G2): 1 (13) n (%) | TEAE: Decreased appetite (30 mg–210 mg (n = 8), G2): 1 (13) n (%) | TEAE: Diarrhea (30 mg–210 mg (n = 8), G2): 0 n (%) | TEAE: Dyspnea (30 mg–210 mg (n = 8), G2): 0 n (%) | TEAE: ECG QT prolonged (30 mg–210 mg (n = 8), G2): 0 n (%) | TEAE: Fatigue (30 mg–210 mg (n = 8), G2): 1 (13) n (%) | TEAE: Headache (30 mg–210 mg (n = 8), G2): 0 n (%) | TEAE: Hypokalaemia (30 mg–210 mg (n = 8), G2): 0 n (%) | TEAE: Muscular weakness (30 mg–210 mg (n = 8), G2): 1 (13) n (%) | TEAE: Nausea (30 mg–210 mg (n = 8), G2): 0 n (%) | TEAE: Platelet count decreased (30 mg–210 mg (n = 8), G2): 0 n (%) | TEAE: Proteinuria (30 mg–210 mg (n = 8), G2): 0 n (%) | TEAE: Pyrexia (30 mg–210 mg (n = 8), G2): 0 n (%) | TEAE: Vomiting (30 mg–210 mg (n = 8), G2): 0 n (%) | TEAE: Weight decreased (30 mg–210 mg (n = 8), G2): 1 (13) n (%) | TEAE: Anemia (30 mg–210 mg (n = 8), G3): 2 (25) n (%) | TEAE: Back pain (30 mg–210 mg (n = 8), G3): 0 n (%) | TEAE: Cough (30 mg–210 mg (n = 8), G3): 0 n (%) | TEAE: Decreased appetite (30 mg–210 mg (n = 8), G3): 0 n (%) | TEAE: Diarrhea (30 mg–210 mg (n = 8), G3): 0 n (%) | TEAE: Dyspnea (30 mg–210 mg (n = 8), G3): 0 n (%) | TEAE: ECG QT prolonged (30 mg–210 mg (n = 8), G3): 1 (13) n (%) | TEAE: Fatigue (30 mg–210 mg (n = 8), G3): 1 (13) n (%) | TEAE: Headache (30 mg–210 mg (n = 8), G3): 0 n (%) | TEAE: Hypokalaemia (30 mg–210 mg (n = 8), G3): 0 n (%) | TEAE: Muscular weakness (30 mg–210 mg (n = 8), G3): 0 n (%) | TEAE: Nausea (30 mg–210 mg (n = 8), G3): 0 n (%) | TEAE: Platelet count decreased (30 mg–210 mg (n = 8), G3): 0 n (%) | TEAE: Proteinuria (30 mg–210 mg (n = 8), G3): 0 n (%) | TEAE: Pyrexia (30 mg–210 mg (n = 8), G3): 0 n (%) | TEAE: Vomiting (30 mg–210 mg (n = 8), G3): 0 n (%) | TEAE: Weight decreased (30 mg–210 mg (n = 8), G3): 0 n (%) | TEAE: Anemia (270 mg (n = 3), G1): 0 n (%) | TEAE: Back pain (270 mg (n = 3), G1): 0 n (%) | TEAE: Cough (270 mg (n = 3), G1): 0 n (%) | TEAE: Decreased appetite (270 mg (n = 3), G1): 0 n (%) | TEAE: Diarrhea (270 mg (n = 3), G1): 0 n (%) | TEAE: Dyspnea (270 mg (n = 3), G1): 0 n (%) | TEAE: ECG QT prolonged (270 mg (n = 3), G1): 0 n (%) | TEAE: Fatigue (270 mg (n = 3), G1): 1 (33) n (%) | TEAE: Headache (270 mg (n = 3), G1): 0 n (%) | TEAE: Hypokalaemia (270 mg (n = 3), G1): 0 n (%) | TEAE: Muscular weakness (270 mg (n = 3), G1): 1 (33) n (%) | TEAE: Nausea (270 mg (n = 3), G1): 1 (33) n (%) | TEAE: Platelet count decreased (270 mg (n = 3), G1): 1 (33) n (%) | TEAE: Proteinuria (270 mg (n = 3), G1): 0 n (%) | TEAE: Pyrexia (270 mg (n = 3), G1): 0 n (%) | TEAE: Vomiting (270 mg (n = 3), G1): 0 n (%) | TEAE: Weight decreased (270 mg (n = 3), G1): 0 n (%) | TEAE: Anemia (270 mg (n = 3), G2): 0 n (%) | TEAE: Back pain (270 mg (n = 3), G2): 0 n (%) | TEAE: Cough (270 mg (n = 3), G2): 0 n (%) | TEAE: Decreased appetite (270 mg (n = 3), G2): 0 n (%) | TEAE: Diarrhea (270 mg (n = 3), G2): 0 n (%)
